pIC50: −log10 of the molar value. Numbered stars: 1 amine (or outer) side, 2 acyl side, 3 side chain; on linkers, the order of the positions; unused ones are H or OH. Bridge positions count the residues as written; N and C are the ends. Square brackets hold non-standard residues; d marks the D form. Peptide text beside a SMILES is read from it. * marks the point of attachment. hPhe(3,5-F2-4-CF3) = N[C@@H](CCc1cc(F)c(C(F)(F)F)c(F)c1)C(=O)O; hPhe(3-Cl-4-CF3) = N[C@@H](CCc1ccc(C(F)(F)F)c(Cl)c1)C(=O)O; NEtPhe(4-CF3) = CCN[C@@H](Cc1ccc(C(F)(F)F)cc1)C(=O)O; NMePhe(4-CF3) = CN[C@@H](Cc1ccc(C(F)(F)F)cc1)C(=O)O; NEtAsp = CCN([C@@H](CC(=O)[*:3])C(=O)[*:2])[*:1]; NEtPhe(4-Me) = CCN[C@@H](Cc1ccc(C)cc1)C(=O)O; NMePhe(4-Me) = CN[C@@H](Cc1ccc(C)cc1)C(=O)O; hPhe(4-Cl) = N[C@@H](CCc1ccc(Cl)cc1)C(=O)O; NMedβ3hAla = C[C@H](CC(=O)[*:2])N(C)[*:1]; Gly(Nα-CH2(4-Pyr)) = O=C(O)CNCc1ccncc1; NMeGly(cPent) = CN[C@H](C(=O)O)C1CCCC1; Phe(3-I) = N[C@@H](Cc1cccc(I)c1)C(=O)O; NMeAla(cPr) = CN[C@@H](CC1CC1)C(=O)O; NMeGly(cBu) = CN[C@H](C(=O)O)C1CCC1; NMeCha = CN[C@@H](CC1CCCCC1)C(=O)O; NMehLeu = CN[C@@H](CCC(C)C)C(=O)O; Gly(N-(CH2)2OEt) = CCOCCNCC(=O)O; Hyp = O=C(O)[C@@H]1C[C@@H](O)CN1; NEtLeu = CCN[C@@H](CC(C)C)C(=O)O; NMeCba = CN[C@@H](CC1CCC1)C(=O)O; NMeChg = CN[C@H](C(=O)O)C1CCCCC1; NMeI = CC[C@H](C)[C@H](NC)C(=O)O; N(CH2CH2)2CF2 = FC1(F)CCN(*)CC1; NMeD = CN[C@@H](CC(=O)O)C(=O)O; NMeL = CN[C@@H](CC(C)C)C(=O)O; NMeV = CN[C@H](C(=O)O)C(C)C; d(β3hA) = C[C@@H](N)CC(=O)O; Morpholide = C1CN(*)CCO1; NMeA = CN[C@@H](C)C(=O)O; NMeAib = CNC(C)(C)C(=O)O; Piperidide = C1CCN(*)CC1; Pyrrolidide = C1CCN(*)C1; Ac5c = NC1(C(=O)O)CCCC1; Aze = O=C(O)[C@@H]1CCN1; Ac4c = NC1(C(=O)O)CCC1; Sar = CNCC(=O)O
Target: protein-protein interaction between Kras and SOS1 (biotin-tagged human Kras loaded with GDP, His-tagged human SOS1) (Homo sapiens (Human), UniProt P01116, G12D)
Experiment: Protein-protein interaction inhibition between Kras and SOS1 (KrasG12D-SOS PPI) using AlphaScreen;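 also: kras produced in E. coli, Ni-coupled donor beads and streptavidin acceptor beads, excitation 680 nm with emission detected at 520–620 nm via singlet oxygen transfer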
Format: biochemical
Conditions: AlphaScreen; biotin-tagged human Kras loaded with GDP, His-tagged human SOS1; read-out: KRAS G12D-SOS PPI IC50

First: CCO[C@@H]1C[C@H]2C(=O)NC3(CCC3)C(=O)N(C)[C@@H](C3CCCCC3)C(=O)N(C)[C@H](C)CC(=O)N(C)[C@@H](CC(C)C)C(=O)N[C@@H]([C@@H](C)CC)C(=O)N(C)[C@@H](C)C(=O)N3CC[C@H]3C(=O)N(CC)[C@@H](Cc3ccc(C)cc3)C(=O)N(C)CC(=O)N[C@@H](CCc3cc(F)c(C(F)(F)F)c(F)c3)C(=O)N2C1 [Compound 724] (cyclo([Ac4c][NMeChg][NMedβ3hAla][NMeL]I[NMeA][Aze][NEtPhe(4-Me)][Sar][hPhe(3,5-F2-4-CF3)][Hyp](Et)))
Second: CCO[C@@H]1C[C@H]2C(=O)NC3(CCCC3)C(=O)N(C)[C@@H](C3CCCC3)C(=O)N(C)[C@H](C)CC(=O)N(C)[C@@H](CC(C)C)C(=O)N[C@@H]([C@@H](C)CC)C(=O)N[C@@H](C)C(=O)N3CC[C@H]3C(=O)N(CC)[C@@H](Cc3ccc(C(F)(F)F)cc3)C(=O)N(C)CC(=O)N[C@@H](CCc3cc(F)c(C(F)(F)F)c(F)c3)C(=O)N2C1 [Compound 785] (cyclo(A[Aze][NEtPhe(4-CF3)][Sar][hPhe(3,5-F2-4-CF3)][Hyp](Et)[Ac5c][NMeGly(cPent)][NMedβ3hAla][NMeL]I))
The pIC50 of the first is 0.84 log units lower: 7.62 for the first, 8.46 for the second. The second is the more potent here.

First: CC[C@H](C)[C@@H]1NC(=O)[C@H](CC(C)C)N(C)C(=O)C[C@@H](C(=O)N2CCCCC2)N(C)C(=O)[C@H](C(C)C)N(C)C(=O)[C@H](C(C)C)NC(=O)[C@H](CC(=O)N2CCC(F)(F)CC2)N(C)C(=O)[C@H](CCc2ccc(C(F)(F)F)c(Cl)c2)NC(=O)CN(C)C(=O)[C@H](CC2CCCCC2)N(C)C(=O)CN(C)C(=O)CN(C)C1=O [Compound 1078] ([NMeL]I[Sar][Sar][NMeCha][Sar][hPhe(3-Cl-4-CF3)][NMeD](N(CH2CH2)2CF2)V[NMeV][NMeD]-Piperidide; lactam N-11)
Second: CCOCCN1CC(=O)NC2(CCCC2)C(=O)N(C)[C@@H](C2CCCCC2)C(=O)N(C)[C@H](C(=O)N2CCCCC2)CC(=O)N(C)[C@@H](CC(C)C)C(=O)N[C@@H]([C@@H](C)CC)C(=O)N(C)CC(=O)N(C)CC(=O)N(C)[C@@H](CC2CCCCC2)C(=O)N(C)CC(=O)N[C@@H](CCc2ccc(C(F)(F)F)c(Cl)c2)C1=O [Compound 872, (11S,17S,26S,29S,33S,36S)-11-[2-[3-chloro-4-(trifluoromethyl)phenyl]ethyl]-36-cyclohexyl-17-(cyclohexylmethyl)-9-(2-ethoxyethyl)-29-isobutyl-15,18,21,24,30,34,37-heptamethyl-26-[(1S)-1-methylpropyl]-33-(piperidine-1-carbonyl)-6,9,12,15,18,21,24,27,30,34,37-undecazaspiro[4.33]octatriacontane-7,10,13,16,19,22,25,28,31,35,38-undecone] ([NMeL]I[Sar][Sar][NMeCha][Sar][hPhe(3-Cl-4-CF3)][Gly(N-(CH2)2OEt)][Ac5c][NMeChg][NMeD]-Piperidide; lactam N-11)
The pIC50 of the first is 2.00 log units lower: 6.72 for the first, 8.72 for the second.

Going from `CC[C@H](C)[C@@H]1NC(=O)[C@H](CC(C)C)N(C)C(=O)C[C@@H](C)NC(=O)[C@H](C(C)C)N(C)C(=O)C2(CCCC2)NC(=O)[C@@H]2CCCN2C(=O)[C@H](CCc2ccc(C(F)(F)F)c(Cl)c2)NC(=O)CN(C)C(=O)[C@H](Cc2ccc(C)cc2)N(C)C(=O)[C@@H]2CCN2C(=O)[C@H](C)N(C)C1=O` [Compound 1801] (cyclo([Ac5c][NMeV][d(β3hA)][NMeL]I[NMeA][Aze][NMePhe(4-Me)][Sar][hPhe(3-Cl-4-CF3)]P)) to `CC[C@H](C)[C@@H]1NC(=O)[C@H](CC2CC2)N(C)C(=O)C[C@@H](C)NC(=O)[C@H](C(C)C)N(C)C(=O)C2(CCCC2)NC(=O)[C@@H]2CCCN2C(=O)[C@H](CCc2ccc(C(F)(F)F)c(Cl)c2)NC(=O)CN(C)C(=O)[C@H](CC2CCCCC2)N(C)C(=O)[C@@H]2CCN2C(=O)[C@H](C)N(C)C1=O` [Compound 771] (cyclo([Ac5c][NMeV][d(β3hA)][NMeAla(cPr)]I[NMeA][Aze][NMeCha][Sar][hPhe(3-Cl-4-CF3)]P)), the pIC50 falls from 8.54 to 7.60 (0.94 log units).

Going from `CC[C@H](C)[C@@H]1NC(=O)[C@H](CC(C)C)N(C)C(=O)C[C@@H](C(=O)N2CCCCC2)N(CC)C(=O)[C@H](C2CCCC2)N(C)C(=O)C2(CCCC2)NC(=O)[C@@H]2CCCN2C(=O)[C@H](CCc2ccc(C(F)(F)F)c(Cl)c2)NC(=O)CN(C)C(=O)[C@H](C2CCC2)N(C)C(=O)[C@@H]2CCN2C(=O)[C@H](C)N(C)C1=O` [Compound 1047] ([NMeL]I[NMeA][Aze][NMeGly(cBu)][Sar][hPhe(3-Cl-4-CF3)]P[Ac5c][NMeGly(cPent)][NEtAsp]-Piperidide; lactam N-11) to `CC[C@H](C)[C@@H]1NC(=O)[C@H](CC(C)C)N(C)C(=O)C[C@@H](C(=O)N2CCCC2)N(C)C(=O)[C@H](C2CCCC2)N(C)C(=O)C2(CCCC2)NC(=O)[C@@H]2CCCN2C(=O)[C@H](CCc2ccc(C(F)(F)F)c(Cl)c2)NC(=O)CN(C)C(=O)[C@H](C2CCCC2)N(C)C(=O)[C@@H]2CCN2C(=O)[C@H](C)N(C)C1=O` [Compound 201] ([NMeL]I[NMeA][Aze][NMeGly(cPent)][Sar][hPhe(3-Cl-4-CF3)]P[Ac5c][NMeGly(cPent)][NMeD]-Pyrrolidide; lactam N-11), the pIC50 rises from 8.20 to 9.24 (1.04 log units).

Going from `CC[C@H](C)[C@@H]1NC(=O)[C@H](CC(C)C)N(C)C(=O)C[C@@H](C(=O)N2CCCCC2)N(C)C(=O)[C@H](C2CCCCC2)N(C)C(=O)C2(CCCC2)NC(=O)CN(Cc2ccncc2)C(=O)[C@H](CCc2ccc(C(F)(F)F)c(Cl)c2)NC(=O)CN(C)C(=O)[C@H](CC2CCCCC2)N(C)C(=O)CN(C)C(=O)CN(C)C1=O` [Compound 2033] ([NMeL]I[Sar][Sar][NMeCha][Sar][hPhe(3-Cl-4-CF3)][Gly(Nα-CH2(4-Pyr))][Ac5c][NMeChg][NMeD]-Piperidide; lactam N-11 (inferred); C-terminus assumed) to `CC[C@H](C)[C@@H]1NC(=O)[C@H](CC(C)C)N(C)C(=O)C[C@@H](C(=O)N2CCCCC2)N(C)C(=O)[C@H](C(C)C)N(C)C(=O)C2(CCCC2)NC(=O)[C@@H]2CCCN2C(=O)[C@H](CCc2ccc(Cl)cc2)NC(=O)CN(C)C(=O)[C@H](CC2CCCCC2)N(C)C(=O)CN(C)C(=O)[C@@H]2CCCN2C1=O` [Compound 530] ([NMeL]IP[Sar][NMeCha][Sar][hPhe(4-Cl)]P[Ac5c][NMeV][NMeD]-Piperidide; lactam N-11), the pIC50 falls from 9.19 to 6.85 (2.34 log units).

First: CC[C@H](C)[C@@H]1NC(=O)[C@H](CC(C)C)N(CC)C(=O)C[C@@H](C(=O)N2CCOCC2)N(C)C(=O)[C@H]([C@@H](C)CC)N(C)C(=O)C2(CCCC2)NC(=O)[C@@H]2CCCN2C(=O)[C@H](CCc2ccc(C(F)(F)F)c(Cl)c2)NC(=O)CN(C)C(=O)[C@H](Cc2ccc(C(F)(F)F)cc2)N(C)C(=O)[C@@H]2CCN2C(=O)[C@H](C)NC1=O [Compound 1233] ([NEtLeu]IA[Aze][NMePhe(4-CF3)][Sar][hPhe(3-Cl-4-CF3)]P[Ac5c][NMeI][NMeD]-Morpholide; lactam N-11)
Second: CC[C@H](C)[C@@H]1NC(=O)[C@H](CCC(C)C)N(C)C(=O)C[C@@H](C(=O)N2CCOCC2)N(C)C(=O)[C@H](C2CCCC2)N(C)C(=O)C2(CCCC2)NC(=O)[C@@H]2CCCN2C(=O)[C@H](CCc2ccc(C(F)(F)F)c(Cl)c2)NC(=O)CN(C)C(=O)[C@H](C2CCCC2)N(C)C(=O)[C@@H]2CCN2C(=O)[C@H](C)NC1=O [Compound 1223] ([NMehLeu]IA[Aze][NMeGly(cPent)][Sar][hPhe(3-Cl-4-CF3)]P[Ac5c][NMeGly(cPent)][NMeD]-Morpholide; lactam N-11)
The pIC50 of the first is 0.32 log units lower: 8.60 for the first, 8.92 for the second. The second is the more potent here.

First: CC[C@H](C)[C@@H]1NC(=O)[C@H](CC(C)C)N(C)C(=O)C[C@@H](C(=O)N2CCC(F)(F)CC2)N(C)C(=O)[C@H](CC(C)C)NC(=O)C(C)(C)N(C)C(=O)[C@H](Cc2ccc(OC)cc2)NC(=O)[C@H](Cc2cccc(I)c2)NC(=O)CN(C)C(=O)[C@H](Cc2ccc(C)cc2)N(C)C(=O)CN(C)C(=O)CN(C)C1=O [Compound 2101, (3S,9S,12S,18S,27S,30S,34S)-34-(4,4-difluoropiperidine-1-carbonyl)-12-[(3-iodophenyl)methyl]-3,30-diisobutyl-9-[(4-methoxyphenyl)methyl]-1,6,6,7,16,19,22,25,31-nonamethyl-27-[(1S)-1-methylpropyl]-18-(p-tolylmethyl)-1,4,7,10,13,16,19,22,25,28,31-undecazacyclotetratriacontane-2,5,8,11,14,17,20,23,26,29,32-undecone] ([NMeL]I[Sar][Sar][NMePhe(4-Me)][Sar][Phe(3-I)]Y(Me)[NMeAib]L[NMeD]-{N(CH2CH2)2CF2}; lactam N-11)
Second: CC[C@H](C)[C@@H]1NC(=O)[C@H](CC(C)C)N(C)C(=O)C[C@@H](C)N(C)C(=O)[C@H](C2CCCC2)N(C)C(=O)C2(CCCC2)NC(=O)[C@@H]2CCCN2C(=O)[C@H](CCc2ccc(C(F)(F)F)c(Cl)c2)NC(=O)CN(C)C(=O)[C@H](C2CCCC2)N(C)C(=O)[C@@H]2CCN2C(=O)[C@H](C)N(C)C1=O [Compound 1046] (cyclo([Ac5c][NMeGly(cPent)][NMedβ3hAla][NMeL]I[NMeA][Aze][NMeGly(cPent)][Sar][hPhe(3-Cl-4-CF3)]P))
The pIC50 of the first is 1.06 log units lower: 7.28 for the first, 8.34 for the second.

For `CC[C@H](C)[C@@H]1NC(=O)[C@H](CC2CCC2)N(C)C(=O)C[C@@H](C)NC(=O)[C@H](C(C)C)N(C)C(=O)C2(CCCC2)NC(=O)[C@@H]2CCCN2C(=O)[C@H](CCc2ccc(C(F)(F)F)c(Cl)c2)NC(=O)CN(C)C(=O)[C@H](CC2CCCCC2)N(C)C(=O)[C@@H]2CCN2C(=O)[C@H](C)N(C)C1=O` [Compound 455] (cyclo([Ac5c][NMeV][d(β3hA)][NMeCba]I[NMeA][Aze][NMeCha][Sar][hPhe(3-Cl-4-CF3)]P)), the pIC50 was 7.23.
